Assay results: article PMC10363981, “Optimizing the enzymatic release of MMAE from isoDGR-based small molecule drug conjugate by incorporation of a GPLG-PABC enzymatically cleavable linker” (Frontiers in Pharmacology, 2023)

Experiments:
[1] = tested on: SK-MEL-28 human melanoma cells; test: In vitro antiproliferative activity, MTT, 72 h continuous treatment (no-washout); type: cell-based
Description: (§1) U87MG human malignant glioma, SK-MEL-28 human melanoma, SK-OV-3 human ovarian cancer, and A549 human lung cancer cell lines were purchased from ATCC. The cells were cultured in Dulbecco’s Modified Eagle’s Medium (DMEM; Biosera, Nuaille, France), supplemented with 10% heat-inactivated Fetal Bovine Serum (FBS; Biosera), and with 1% Penicillin/Streptomycin (Biosera). Cells were cultured in sterile T75 flasks with ventilation cap (Sarstedt, Nümbrecht, Germany) at 37 °C in a humidified atmosphere with 5% CO2 in ESCO CelCulture Incubator (ESCO, Friedberg, Germany). Manipulations with the cells were performed in biosafety cabinet (laminar) ESCO Sentinel Gold class II model AC2-4E8 (ESCO).
(§2) After standard trypsinization and harvesting cells by trypsin (Biosera), ethylenediaminetetraacetic acid (EDTA; Biosera) and PBS solution, 6×10^3 cells per well were seeded in serum containing (10%) growth medium to 96-well plates with flat bottom (Eppendorf, Hamburg, Germany), in a 100 μL volume per well, and incubated at 37°C.
(§3) […] The control wells were treated only with serum free medium (5% serum final).
(§4) For the evaluation of the in vitro antiproliferative activity of compounds, the cell viability was determined by MTT assay (3-(4,5-dimethylthiazol-2-yl)-2,5-diphenyl-tetrazolium bromide) obtained from Duchefa Biochemie (Haarlem, Netherlands).
(§5) 22 µL of MTT solution (5 mg/mL in PBS, 0.5 mg/mL final) was added to each well and after 2 h incubation at 37°C, the supernatant was removed. […] Average background absorbance (DMSO-Ethanol) was subtracted from absorbance values of control and treated wells, and cell viability was determined relative to untreated (control) wells where cell viability was arbitrarily set to 100%. […] The experiments were done in triplicate and each experiment was repeated three times.

[2] = tested on: U87MG human malignant glioma cells; test: as above; type: cell-based
Description: as §1, §2, §3, §4, §5

[3] = tested on: U87MG cells; test: In vitro antiproliferative activity in the presence of MMP-2 inhibitor; type: cell-based, human; settings: 16 h pre-incubation with MMP-2 inhibitor 10 µM, then 72 h continuous treatment, 5% serum final; average ± SD, triplicate; read-out: IC50 MMP-2 inhibitor + Treatment 72 h U87MG (αVβ3 +)
Description: as §4
(§6) 22 µL of MTT solution (5 mg/mL in PBS, 0.5 mg/mL final) was added to each well and after 2 h incubation at 37°C, the supernatant was removed. The precipitated purple formazan crystals were dissolved in 100 µL of a 1:1 solution of dimethylsulfoxide (DMSO; Merck, St. Louis, MO, United States): 96% Ethanol (Molar Chemicals Kft., Halásztelek, Hungary) and the absorbance was measured after 15 min at λ = 570 nm by using microplate reader CLARIOstar Plus (BMG Labtech, Ortenberg, Germany). Average background absorbance (DMSO-Ethanol) was subtracted from absorbance values of control and treated wells, and cell viability was determined relative to untreated (control) wells where cell viability was arbitrarily set to 100%. Absorbance values of treated samples were normalized versus untreated control samples and interpolated by nonlinear regression analysis with GraphPad Prism 6 software (GraphPad, La Jolla, San Diego, CA, United States) to generate sigmoidal dose-response curves from which the 50% inhibitory concentration (IC50) values of the compounds were calculated and presented as nanomolar (nM) units. The experiments were done in triplicate and each experiment was repeated three times.
(§7) The conjugate 2 and the free MMAE were tested in presence of the MMP-2 inhibitor cis-9-octadecenoyl-N-hydroxylamine (Merck) dissolved in DMSO ([You et al., 2018]). The three αVβ3 integrin and MMP-2 overexpressing cancer cell lines (U87MG, SK-MEL-28, […]) were seeded with serum containing medium ([Ellijimi et al., 2018]; [Shim et al., 2019]) and, after 8 h, were washed-out. Then, 100 µL per well of MMP-2 inhibitor (10 µM final concentration) were added and cells were incubated for 16 h, prior to the treatment. Later, the conjugate 2 and free MMAE were dissolved in 10% serum containing medium and added to reach the same concentrations evaluated in the previous test in a final volume of 100 µL per well and incubated (5% serum final) continuously for 72 h of the treatment. The experiments were performed in triplicate.

[4] = tested on: SK-MEL-28 cells; test: as above; type: cell-based, human; settings: 16 h pre-incubation with MMP-2 inhibitor 10 µM, then 72 h continuous treatment, 5% serum final; average ± SD, triplicate; read-out: IC50 MMP-2 inhibitor + Treatment 72 h SK-MEL-28 (αVβ3 +)
Description: as §4, §6, §7

[5] = tested on: SK-OV-3 cells; test: as above; type: cell-based, human; settings: 16 h pre-incubation with MMP-2 inhibitor 10 µM, then 72 h continuous treatment, 5% serum final; average ± SD, triplicate; read-out: IC50 MMP-2 inhibitor + Treatment 72 h SK-OV-3 (αVβ3 +)
Description: as §4, §6, §7

[6] = MTT, 72 h continuous treatment, no washout, 5% serum final, triplicate, repeated three times
[7] = relative potency = ratio of IC50 of 2 vs MMAE, 72 h no washout

Question: With `CC[C@H](C)[C@@H]([C@@H](CC(=O)N1CCC[C@H]1[C@H](OC)[C@@H](C)C(=O)N[C@H](C)[C@@H](O)c1ccccc1)OC)N(C)C(=O)[C@@H](NC(=O)[C@H](C(C)C)N(C)C(=O)OCc1ccc(NC(=O)CNC(=O)[C@H](CC(C)C)NC(=O)[C@@H]2CCCN2C(=O)CNC(=O)CCc2cn(CCOCCOCCOCCOCC(=O)NCc3ccc(CN4C(=O)[C@H]5CC(=O)N[C@H](C(=O)O)CC(=O)NCC(=O)N[C@@H](CCCNC(=N)N)C(=O)NC[C@H]4C(=O)N5)cc3)nn2)cc1)C(C)C` [compound 2, cyclo[DKP-isoDGR]-PEG4-GPLG-PABC-MMAE] as the compound, how does the IC50 [1, 6] read?
Answer: The IC50 was 70.4 ± 7.1 nM.

Question: And the “RP [SMDC (2)/MMAE] SK-MEL-28” value [1, 7]?
Answer: The value was 29.49.

Question: What about the IC50 [2, 6] of the same compound?
Answer: Its IC50 is 7.5 ± 0.9 nM.

Question: And the “RP [SMDC (2)/MMAE] U87MG” value [2, 7]?
Answer: Its value is 33.30.

Question: And the IC50 [3]?
Answer: The IC50 was 7.4 nM.

Question: And the IC50 [4]?
Answer: Its IC50 is 28.7 nM.

Question: And the IC50 [5]?
Answer: Its IC50 is 3.2 nM.
